The source of these data is patent US8653100B2 (AbbVie Inc., priority 2008, dated 2014).

Counter-ions that a name gives are not always drawn. Like-named read-outs stand apart in the source and are kept apart here.

One assay concerns the target human GlyT1c (Homo sapiens (Human), UniProt P48067). Description: [3H]-Glycine uptake into recombinant CHO cells expressing human GlyT1. It is filed as cell-based. As to conditions: hGlyT1c_5_CHO cells, 200 nM [3H]-glycine. In a few lines:
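hGlyT1c-expressing CHO cells plated at 20,000 cells/well and cultured 24 h; [3H]-glycine incorporation read continuously by solid-phase scintillation for up to 3 h. IC50 from four-parameter logistic fit using the linear uptake phase between 60 and 120 min.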

The target in the next assay is human GlyT1c transporter (Homo sapiens (Human), UniProt P48067). Description: Radioligand binding assay using recombinant CHO cell membranes expressing human GlyT1. As to conditions: read-out: radioligand binding Kiapp. In a few lines: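 Competition binding of [^3H]-(R)-NPTS (0.5 nM) to CHO membranes expressing human GlyT1c (50 μg/ml protein) in pH 7.5 Hepes/NaCl buffer with 1% DMSO, 1 h at room temperature. Non-specific binding defined with 10 μM Org24598; filtration and scintillation counting, one-site fit, Ki via Cheng-Prusoff.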

Setting [1] is: radioligand [3H]-(R)-NPTS (examples 1-19, 22-52, 54-87).
Setting [2] is: examples 88-204, radioligand not specified by footnote.

human GlyT1c transporter, sequence (P48067 whole entry): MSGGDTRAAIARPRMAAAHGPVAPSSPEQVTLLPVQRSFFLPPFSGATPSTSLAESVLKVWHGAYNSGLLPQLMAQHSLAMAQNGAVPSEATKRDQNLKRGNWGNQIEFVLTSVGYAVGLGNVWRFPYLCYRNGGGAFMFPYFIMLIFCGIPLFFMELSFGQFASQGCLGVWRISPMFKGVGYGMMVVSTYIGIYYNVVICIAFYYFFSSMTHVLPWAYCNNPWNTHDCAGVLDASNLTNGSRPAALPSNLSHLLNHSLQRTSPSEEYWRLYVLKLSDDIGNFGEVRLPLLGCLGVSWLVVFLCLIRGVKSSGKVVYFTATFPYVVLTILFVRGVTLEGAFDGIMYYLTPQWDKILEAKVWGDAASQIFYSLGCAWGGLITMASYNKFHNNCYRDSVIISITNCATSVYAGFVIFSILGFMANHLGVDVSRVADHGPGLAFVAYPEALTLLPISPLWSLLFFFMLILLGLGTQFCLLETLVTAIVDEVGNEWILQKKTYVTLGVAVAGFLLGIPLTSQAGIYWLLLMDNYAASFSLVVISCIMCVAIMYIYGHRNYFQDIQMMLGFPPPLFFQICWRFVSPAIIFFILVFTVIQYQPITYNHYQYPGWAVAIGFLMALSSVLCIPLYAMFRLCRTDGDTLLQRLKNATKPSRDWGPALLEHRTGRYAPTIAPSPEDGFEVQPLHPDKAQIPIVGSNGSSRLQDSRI
human GlyT1c, sequence (P48067 whole entry): as above

The IC50 is the concentration needed to halve the response being measured. `CCCS(=O)(=O)NCCOc1ccc2c(c1)C(C1(c3ccc(F)cc3)CCC1)NCC2` (centres unmarked) [Example 65, N-[2-({1-[1-(4-Fluorophenyl)cyclobutyl]-1,2,3,4-tetrahydroisoquinolin-7-yl}oxy)ethyl]propane-1-sulfonamide hydrochloride]: the IC50 at human GlyT1c was at most 0.1 µM. Besides, the Ki on human GlyT1c transporter (setting [1]) was at most 0.1 µM.
With `CCCS(=O)(=O)NCCOc1ccc2c(c1)C(C1(c3ccc(F)cc3)CCC1)N(C(=N)N)CC2` (centres unmarked) [Example 72, 1-[1-(4-Fluorophenyl)cyclobutyl]-7-{2-[(propylsulfonyl)amino]ethoxy}-3,4-dihydroisoquinoline-2(1H)-carboximidamide acetate], the IC50 at human GlyT1c is at most 1 µM. Also, the Ki at human GlyT1c transporter (setting [1]) was at most 10 µM.
In the case of `CCCS(=O)(=O)N1CCN(c2cc3c(cc2OC)C(C2(c4ccc(Cl)cc4)CCC2)N(S(=O)(=O)CCC)CC3)CC1` (centres unmarked) [Example 84, 1-[1-(4-Chlorophenyl)cyclobutyl]-7-methoxy-2-(propylsulfonyl)-6-[4-(propylsulfonyl)-piperazin-1-yl]-1,2,3,4-tetrahydroisoquinoline], the IC50 at human GlyT1c is at most 100 µM. Moreover, the Ki at human GlyT1c transporter (setting [1]) was at most 10 µM.
Consider `O=S(=O)(NCCOc1ccc2c(c1)C(C1(c3cccc(F)c3)CCC1)NCC2)c1cccnc1` (centres unmarked) [Example 101, N-[2-({1-[1-(3-fluorophenyl)cyclobutyl]-1,2,3,4-tetrahydroisoquinolin-7-yl}oxy)ethyl]pyridine-3-sulfonamide dihydrochloride], for which the IC50 on human GlyT1c was at most 1 µM. For the same molecule, on human GlyT1c transporter (setting [2]), the Ki was at most 0.1 µM.
The like results for `CC(C)(O)CS(=O)(=O)NCCOc1ccc2c(c1)C(C1(c3ccc(Cl)cc3)CCC1)NCC2` (centres unmarked) [Example 103, N-[2-({1-[1-(4-Chlorophenyl)cyclobutyl]-1,2,3,4-tetrahydroisoquinolin-7-yl}oxy)ethyl]-2-hydroxy-2-methylpropane-1-sulfonamide hydrochloride] were, in that order, at most 0.1 µM and at most 0.1 µM.
On the same counts, the results for `O=S(=O)(NCCOc1ccc2c(c1)C(C1(c3cccc(F)c3)CCC1)NCC2)c1cccs1` (centres unmarked) [Example 106, N-[2-({1-[1-(3-Fluorophenyl)cyclobutyl]-1,2,3,4-tetrahydroisoquinolin-7-yl}oxy)ethyl]thiophene-2-sulfonamide hydrochloride] are at most 10 µM and at most 1 µM.
For the molecule `O=S(=O)(NCc1ccc2c(c1)C(C1(c3ccc(Cl)cc3)CCC1)NCC2)c1cccnc1` (centres unmarked) [Example 108, N-({1-[1-(4-Chlorophenyl)cyclobutyl]-1,2,3,4-tetrahydroisoquinolin-7-yl}methyl)pyridine-3-sulfonamide dihydrochloride], the IC50 at human GlyT1c was at most 10 µM. The Ki on human GlyT1c transporter (setting [2]) is at most 1 µM.
On the same counts, the results for `O=S(=O)(CCCOc1ccc2c(c1)C(C1(c3ccc(Cl)cc3)CCC1)NCC2)Nc1ccccc1` (centres unmarked) [Example 112, 3-({1-[1-(4-Chlorophenyl)cyclobutyl]-1,2,3,4-tetrahydroisoquinolin-7-yl}oxy)-N-phenylpropane-1-sulfonamide hydrochloride] are at most 10 µM and at most 1 µM.
Turning to `O=S(=O)(Nc1ccccc1Oc1ccc2c(c1)C(C1(c3ccc(Cl)cc3)CCC1)NCC2)c1cccs1` (centres unmarked) [Example 116, N-[2-({1-[1-(4-Chlorophenyl)cyclobutyl]-1,2,3,4-tetrahydroisoquinolin-7-yl}oxy)phenyl]thiophene-2-sulfonamide hydrochloride], the half-inhibitory concentration (IC50) on human GlyT1c was at most 100 µM. Besides, the Ki at human GlyT1c transporter (setting [2]) was at most 1 µM.
On the same counts, the results for `CC(C)NS(=O)(=O)CCCOc1ccc2c(c1)C(C1(c3ccc(Cl)cc3)CCC1)NCC2` (centres unmarked) [Example 117, 3-({1-[1-(4-Chlorophenyl)cyclobutyl]-1,2,3,4-tetrahydroisoquinolin-7-yl}oxy)-N-(propan-2-yl)propane-1-sulfonamide hydrochloride] are at most 10 µM and at most 1 µM.
As for `CC(C)(C)NS(=O)(=O)CCCOc1ccc2c(c1)C(C1(c3ccc(Cl)cc3)CCC1)NCC2` (centres unmarked) [Example 118, N-tert-Butyl-3-({1-[1-(4-chlorophenyl)cyclobutyl]-1,2,3,4-tetrahydroisoquinolin-7-yl}oxy)propane-1-sulfonamide hydrochloride], the IC50 at human GlyT1c is at most 10 µM. Further, the Ki on human GlyT1c transporter (setting [2]) was at most 1 µM.
As for `COc1ccccc1NS(=O)(=O)CCCOc1ccc2c(c1)C(C1(c3ccc(Cl)cc3)CCC1)NCC2` (centres unmarked) [Example 121, 3-({1-[1-(4-Chlorophenyl)cyclobutyl]-1,2,3,4-tetrahydroisoquinolin-7-yl}oxy)-N-(2-methoxyphenyl)propane-1-sulfonamide hydrochloride], at human GlyT1c, the IC50 was at most 10 µM. For the same molecule, at human GlyT1c transporter (setting [2]), the Ki is at most 10 µM.
As for `CC(C)(C)OC(=O)N1CCN(S(=O)(=O)CCCOc2ccc3c(c2)C(C2(c4ccc(Cl)cc4)CCC2)NCC3)CC1` (centres unmarked) [Example 123, tert-Butyl 4-{[3-({1-[1-(4-chlorophenyl)cyclobutyl]-1,2,3,4-tetrahydroisoquinolin-7-yl}oxy)propyl]sulfonyl}piperazine-1-carboxylate], at human GlyT1c, the 50% inhibitory concentration (IC50) is at most 100 µM. The Ki on human GlyT1c transporter (setting [2]) is at most 10 µM.
Turning to `CC(C)(C)OC(=O)NCCNS(=O)(=O)CCCOc1ccc2c(c1)C(C1(c3ccc(Cl)cc3)CCC1)NCC2` (centres unmarked) [Example 126, tert-Butyl [2-({[3-({1-[1-(4-chlorophenyl)cyclobutyl]-1,2,3,4-tetrahydroisoquinolin-7-yl}oxy)propyl]sulfonyl}amino)ethyl]carbamate], the IC50 at human GlyT1c is at most 10 µM. Further, at human GlyT1c transporter (setting [2]), the Ki was at most 10 µM.
As to `NCCNS(=O)(=O)CCCOc1ccc2c(c1)C(C1(c3ccc(Cl)cc3)CCC1)NCC2` (centres unmarked) [Example 130, N-(2-Aminoethyl)-3-({1-[1-(4-chlorophenyl)cyclobutyl]-1,2,3,4-tetrahydroisoquinolin-7-yl}oxy)propane-1-sulfonamide dihydrochloride], the IC50 at human GlyT1c was at most 100 µM. For the same molecule, the Ki on human GlyT1c transporter (setting [2]) is at most 10 µM.
With `CN(C)CCNS(=O)(=O)CCCOc1ccc2c(c1)C(C1(c3ccc(Cl)cc3)CCC1)NCC2` (centres unmarked) [Example 132, 3-({1-[1-(4-Chlorophenyl)cyclobutyl]-1,2,3,4-tetrahydroisoquinolin-7-yl}oxy)-N-[2-(dimethylamino)ethyl]propane-1-sulfonamide dihydrochloride], at human GlyT1c, the IC50 was at most 10 µM. Also, the Ki on human GlyT1c transporter (setting [2]) is at most 10 µM.
For `O=S(=O)(CCCOc1ccc2c(c1)C(C1(c3ccc(Cl)cc3)CCC1)NCC2)N1CCNCC1` (centres unmarked) [Example 133, 1-[1-(4-Chlorophenyl)cyclobutyl]-7-[3-(piperazin-1-ylsulfonyl)propoxy]-1,2,3,4-tetrahydroisoquinoline dihydrochloride], the IC50 on human GlyT1c was at most 10 µM. Moreover, the Ki at human GlyT1c transporter (setting [2]) was at most 10 µM.
With `COCCNS(=O)(=O)CCCOc1ccc2c(c1)C(C1(c3ccc(Cl)cc3)CCC1)NCC2` (centres unmarked) [Example 135, 3-({1-[1-(4-Chlorophenyl)cyclobutyl]-1,2,3,4-tetrahydroisoquinolin-7-yl}oxy)-N-(2-methoxyethyl)propane-1-sulfonamide hydrochloride], at human GlyT1c, the IC50 is at most 100 µM. In addition, the Ki at human GlyT1c transporter (setting [2]) was at most 10 µM.
On the same counts, the results for `CCCS(=O)(=O)NCCOc1ccc2c(c1)C(C1(c3ccc(Cl)c(N)c3)CCC1)NCC2` (centres unmarked) [Example 142, N-[2-({1-[1-(3-Amino-4-chlorophenyl)cyclobutyl]-1,2,3,4-tetrahydroisoquinolin-7-yl}oxy)ethyl]propane-1-sulfonamide dihydrochloride] are at most 0.1 µM and at most 0.1 µM.
The like results for `CCCS(=O)(=O)NCCOc1ccc2c(c1)C(C(C)c1ccc(Cl)cc1)NCC2` (centres unmarked) [Example 145, N-[2-({1-[1-(4-Chlorophenyl)ethyl]-1,2,3,4-tetrahydroisoquinolin-7-yl}oxy)ethyl]propane-1-sulfonamide hydrochloride] were, in that order, at most 0.1 µM and at most 0.1 µM.
With `CC(C)(C)CS(=O)(=O)NCCOc1ccc2c(c1)C(C1(c3ccc(Cl)cc3)CCC1)NCC2` (centres unmarked) [Example 155, N-[2-({1-[1-(4-Chlorophenyl)cyclobutyl]-1,2,3,4-tetrahydroisoquinolin-7-yl}oxy)ethyl]-2,2-dimethylpropane-1-sulfonamide hydrochloride], the IC50 at human GlyT1c is at most 10 µM. Moreover, the Ki at human GlyT1c transporter (setting [2]) was at most 0.1 µM.
On to `Nc1ccc(S(=O)(=O)NCCOc2ccc3c(c2)C(C2(c4ccc(Cl)cc4)CCC2)NCC3)cn1` (centres unmarked) [Example 165, 6-Amino-N-[2-({1-[1-(4-chlorophenyl)cyclobutyl]-1,2,3,4-tetrahydroisoquinolin-7-yl}oxy)ethyl]pyridine-3-sulfonamide], for which the IC50 on human GlyT1c was at most 10 µM. In addition, on human GlyT1c transporter (setting [2]), the Ki is at most 1 µM.
On the same counts, the results for `O=S(=O)(NCCOc1ccc2c(c1)C(C1(c3ccc(Cl)cc3)CCC1)NCC2)c1c(Cl)nc2sccn12` (centres unmarked) [Example 167, 6-Chloro-N-[2-({1-[1-(4-Chlorophenyl)cyclobutyl]-1,2,3,4-tetrahydroisoquinolin-7-yl}oxy)ethyl]imidazo[2,1-b][1,3]thiazole-5-sulfonamide hydrochloride] are at most 10 µM and at most 1 µM.
Consider `CCCS(=O)(=O)NCCOc1ccc2c(c1)C(C(O)(c1ccc(Cl)cc1)c1ccc(Cl)cc1)NCC2` (centres unmarked) [Example 176, N-[2-({1-[Bis(4-chlorophenyl)(hydroxy)methyl]-1,2,3,4-tetrahydroisoquinolin-7-yl}oxy)ethyl]propane-1-sulfonamide hydrochloride], for which, on human GlyT1c, the IC50 is at most 10 µM. Moreover, the Ki at human GlyT1c transporter (setting [2]) is at most 10 µM.
For `CN(C)CCCS(=O)(=O)NCCOc1ccc2c(c1)C(C1(c3ccc(Cl)cc3)CCC1)NCC2` (centres unmarked) [Example 181, N-[2-({1-[1-(4-Chlorophenyl)cyclobutyl]-1,2,3,4-tetrahydroisoquinolin-7-yl}oxy)ethyl]-3-(dimethylamino)propane-1-sulfonamide (2E)-but-2-enedioate], on human GlyT1c, the IC50 was at most 10 µM. Further, the Ki on human GlyT1c transporter (setting [2]) is at most 10 µM.
